Measurements as given in patent US8476280B2, “Compositions and methods for combating lower urinary tract dysfunctions with delta opioid receptor agonists” (Versi Group, LLC, priority 2002, dated 2013).

How the values were obtained:
[1] = system: rats experiencing partial urethral restriction; assay: Cystometric parameters in rats experiencing partial urethral restriction; type: in vivo, rat; settings: oral administration of 10 mg/kg
Excerpt: Male rats weighing 200 to 250 grams were used. The method to produce bladder outlet obstructions thereby producing partial urethral restriction is essentially that reported by Malmgren et al, J. Urol. 137:1291-1294, the disclosure of which is hereby incorporated herein by reference. Following anesthetic induction, the ventral abdominal wall and perineum were shaved and cleaned with betadine. A lower midline abdominal incision was made, and the bladder and proximal urethra were identified. A plastic rod with a ˜1 mm outer diameter was placed parallel to the urethra, and a silk ligature was tied around the urethra and the plastic rod. […]
On the day of testing, the bladder catheter was connected through a T-shaped tube to a pressure transducer (Grass PT300 or Gould P23) to record bladder pressure isovolumetrically and to a peristaltic pump for continuous infusion, at a constant rate of 0.1 ml/min, of saline solution into the urinary bladder. The pressure signal during infusion was continuously recorded.
Two urodynamic parameters were evaluated in the test rats: micturition pressure and interval between voiding that equates to volume capacity before detrusor contraction occurs (decrease in frequency of contractions). Changes in bladder activity were recorded and expressed as pressure or volume over time.

healthy conscious rats = assay: Cystometric parameters in healthy conscious rats; type: in vivo, rat; settings: for inhibition of bladder contractions (micturition pressure): intravenous administration, recorded 90 minutes after injection; for frequency of bladder contractions / pressure of bladder contractions: oral administration via stomach cannula, recorded 120 minutes after administration
Procedure: Male rats weighing 200 to 250 grams were used. The rats were housed with free access to food and maintained on forced 12 hours alternating light-dark cycle at 22-24° C. for at least one week, except during performance of the experiment.
The rats were anesthetized with pentobarbital, 65 mg/kg i.p. and placed in a supine position. An approximately 10 mm long midline incision was made in the shaved and cleaned abdominal wall. The urinary bladder was freed from adhering tissues, emptied and then cannulated, via an incision at the dome with a polyethylene cannula (PE50), which was permanently sutured in place. The cannula was exteriorized through a subcutaneous tunnel in the retroscapular area, where it was connected with a plastic adapter to avoid the risk of removal by the rats. For intravenous (i.v.) injection of test compounds, a polyethylene tubing (PE50) was inserted into the jugular vein and exteriorized in the retroscapular area. Since cystometrographic parameters have been reported to be influenced by the time elapsed after catheter implantation, the rats were treated with 1 mg/kg Penicilline G, intramuscularly, to prevent infection and allowed to rest 3 days after implantation and before testing commenced.
For oral administration of test compounds, a polyethylene tube (PE50) was inserted into the stomach and was permanently sutured in place. The cannula was exteriorized through a subcutaneous tunnel in the retroscapular area, where it was connected with a plastic adapter to avoid the risk of removal by the rats.
On the day of the experiments, the rats were placed in Bollman's cages, the free tip of the bladder catheter was connected through a T-shaped tube to a pressure transducer (Grass PT300 or Gould P23) to record bladder pressure and to a peristaltic pump for continuous infusion, at a constant rate of […] of saline solution into the urinary bladder. The intraluminal pressure signal during infusion was continuously recorded. Two urodynamic parameters were evaluated: micturition pressure and interval between micturition that equates to volume capacity before detrusor contraction occurs (decrease in frequency of contractions). Micturition pressure is defined as the maximal intravesical pressure induced by the contraction of detrusor during micturition. Data was calculated as the mean of testing results for several animals at each dosage. The drug effects were expressed as a percent relative to activity of the control data, which was set at 100%.
Infusion was commenced with saline solution to determine activity in rats without test compounds to be used as the control baseline. Saline solution infusion was interrupted and the test compounds were administered. At time points 90 minutes after intravenous administration and 120 minutes after oral drug administration, cystometrograms were recorded in each animal and the mean values of the recorded cystometrographic parameters were calculated.

| SMILES | frequency and intensity of pressure contractions ([1]; three test rats) | volume capacity (bladder capacity before voiding) ([1]; trace 1d) | inhibition of bladder contractions (micturition pressure) (healthy conscious rats) | frequency of bladder contractions (healthy conscious rats) | pressure of bladder contractions (healthy conscious rats) |
| --- | --- | --- | --- | --- | --- |
| CCN(CC)C(=O)c1ccc(C(c2ccccc2)N2C[C@@H](C)N(Cc3cccc(F)c3)C[C@@H]2C)cc1 (stereo partly drawn) [Compound 1, 4-((alpha-S)-alpha-((2S,5R)-2,5-Dimethyl-4-(3-fluorobenzyl)-1-piperazinyl)benzyl)-N,N-diethylbenzamide] | marked improvement in both frequency and intensity of pressure contractions (reduced) | volume capacity increased | effected an inhibition of bladder contractions | a decrease in the frequency of bladder contractions | a decrease in the pressure of these contractions |
| CCN(CC)C(=O)c1ccc(C(c2ccccc2)N2C[C@@H](C)N(Cc3ccc(F)cc3)C[C@@H]2C)cc1 (stereo partly drawn) [Compound 2, 4-((alpha-S)-alpha-((2S,5R)-2,5-Dimethyl-4-(4-fluorobenzyl)-1-piperazinyl)benzyl)-N,N-diethylbenzamide] |  |  | effected an inhibition of bladder contractions |  |  |
| C=CCN1C[C@H](C)N(C(c2ccc(C(=O)N(CC)CC)cc2)c2cccc(OCC(=O)O)c2)C[C@H]1C (stereo partly drawn) [Compound 3, 3-((alpha-R)-alpha-((2S,5R)-4-allyl-2,5-dimethyl-1-piperazinyl)-4-(diethylaminocarbonyl)benzyl)phenoxyacetic acid] |  |  | effected an inhibition of bladder contractions |  |  |
| C=CCN1C[C@H](C)N(C(c2ccccc2)c2cccc(C(=O)N(C)c3cccc(F)c3)c2)C[C@H]1C (stereo partly drawn) [Compound 4, 3-((alpha-S)-alpha-((2S,5R)-4-Allyl-2,5-dimethyl-1-piperazinyl)benzyl)-N-(3-fluorophenyl)-N-methylbenzamide] |  |  | effected an inhibition of bladder contractions |  |  |
| Cc1ccccc1[C@H](c1cccc(O)c1)N1C[C@@H](C)NC[C@@H]1C [Compound 10, 3-((S)-((2S,5R)-2,5-Dimethyl-1-piperazinyl)(2-methylphenyl)methyl)phenol] |  |  | effected an inhibition of bladder contractions |  |  |
| C[C@@H]1CN(Cc2ccc(C(=O)O)cc2)[C@@H](C)CN1[C@H](c1ccc(S(=O)(=O)N(C)C)cc1)c1cccc(O)c1 [Compound 11, 4-{4-[(R)-(4-dimethylsulfamoyl-phenyl)-(3-hydroxyphenyl)methyl]-(2S,5R)-dimethylpiperazin-1-ylmethyl}benzoic acid] |  |  |  | a decrease in the frequency of bladder contractions | a decrease in the pressure of these contractions |
